Measured values taken from patent US20080248511A1, “METHODS TO QUENCH LIGHT FROM OPTICAL REACTIONS” (priority 2007, published 2008).
Like-named read-outs stand apart in the source and are kept apart here.

Tests used:
firefly luciferase [1] = biological target: T1, firefly luciferase (Photinus pyralis, UniProt P08659); test: biochemical; conditions: for remaining activity at 0.5 %: read-out: Retained Firefly Luciferase Luminescence (%)
Method: (§1) The retained luminescence for each luciferase was calculated by dividing the luminescence in the presence of the detergent by the luminescence in the absence of the test detergent. The selectivity value for each of the test detergents was determined by dividing the retained firefly luciferase luminescence by the retained Renilla luciferase luminescence.
(§2) A set of detergents (Table 2; Sigma-Aldrich) was added at 0.5% (from a 5% or 10% stock solution) to either Luciferase Assay Reagent (Promega) or Renilla Luciferase Assay Reagent (Promega) and allowed to equilibrate at room temperature.
(§3) The firefly luciferase and Renilla luciferase enzymes were diluted as follows. Firefly luciferase was diluted to 14 ng/ml in Phosphate Buffered Saline (PBS) containing 0.1% of the protein carrier Prionex® (Pentapharm). Renilla luciferase was diluted to 10 ng/ml in 1× Renilla Luciferase Lysis Buffer (Promega) containing 0.1% Prionex®. The Renilla Luciferase Lysis Buffer […] detergent micelles when using the Renilla Luciferase Assay Reagent. In the absence of other detergents, this prevents sequestering of coelenterazine which inhibits Renilla luciferase-mediated luminescence.
(§4) The luciferase reactions were initiated by adding 40 μl of either the firefly or Renilla luciferase enzyme solution to 200 μl of the appropriate reagent solution (firefly luciferase enzyme solution+firefly luciferase reagent solution or Renilla luciferase enzyme solution+Renilla luciferase reagent solution, respectively). The reactions were performed in an opaque white, 96-well plate and luminescence was measured for 0.5 seconds per well using a Turner BioSystems Veritas™ Microplate luminometer. The retained firefly luciferase and Renilla luciferase luminescence, as well as the selectivity values for each detergent, were calculated (Table 2).

Renilla luciferase [2] = biological target: T2, Renilla luciferase (Renilla reniformis, UniProt P27652); test: biochemical; format: biochemical; conditions: for remaining activity at 0.5 %: read-out: Retained Renilla Luciferase Luminescence (%)
T2 sequence (P27652 1-311): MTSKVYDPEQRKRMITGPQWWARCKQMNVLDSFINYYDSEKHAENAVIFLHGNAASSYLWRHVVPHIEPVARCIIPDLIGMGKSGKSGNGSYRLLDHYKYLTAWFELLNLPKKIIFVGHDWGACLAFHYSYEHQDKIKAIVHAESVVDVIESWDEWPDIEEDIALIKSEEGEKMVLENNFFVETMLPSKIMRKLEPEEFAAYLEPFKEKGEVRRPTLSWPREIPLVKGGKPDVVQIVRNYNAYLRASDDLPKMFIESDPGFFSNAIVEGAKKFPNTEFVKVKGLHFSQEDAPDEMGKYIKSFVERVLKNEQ
Method: as §1, §2, §3, §4

firefly luciferase [3] = biological target: T1, firefly luciferase; test: Quaternary ammonium/phosphonium detergent screen, firefly luciferase (Example 5); format: biochemical; conditions: Tergitol NP-9 present
Method: (§5) Each detergent was added at 0.2% to a reagent solution containing 50 mM Tricine pH 8.3, 3.5 mM MgSO4, 1 mM CDTA, 30 mM thiourea and 0.5% Tergitol NP-9. This solution or one not containing a detergent inhibitor was used to resuspend the Bright-Glo™ luciferin substrate (Promega).
(§6) The luciferase reactions were initiated by adding 100 μl of the firefly luciferase or Renilla luciferase enzyme solutions to 100 μl of reagent solution. The reactions were performed as described above. […] The detergent concentrations listed refer to the final concentration in the reaction.

firefly luciferase [4] = biological target: T1, firefly luciferase; test: as above; format: biochemical; conditions: final conc. 0.03% detergent, Tergitol NP-9 present; for remaining activity at 0.03 %: read-out: Retained Firefly Luciferase Luminescence (%)
Renilla luciferase [5] = biological target: T2, Renilla luciferase; test: Quaternary ammonium/phosphonium detergent screen, Renilla luciferase (Example 5); format: biochemical; conditions: final conc. 0.03% detergent; for remaining activity at 0.03 % / Retained Renilla Luciferase Luminescence (%): Tergitol NP-9 present; for remaining activity at 0.03 %: read-out: Retained Renilla Luciferase Luminescence (%)
Renilla luciferase [6] = biological target: T2, Renilla luciferase; test: as above; format: biochemical; conditions: for remaining activity at 0.1 % / Retained Renilla Luciferase Luminescence (%): Tergitol NP-9 present
Method: as §5, §6

[7] = 0.5% detergent in Luciferase Assay Reagent
[8] = 0.5% detergent in Renilla Luciferase Assay Reagent
[9] = retained firefly / retained Renilla, 0.5% detergent
[10] = read-out: Retained Firefly Luciferase Luminescence (%), final conc. 0.10% detergent
[11] = read-out: Retained Renilla Luciferase Luminescence (%), final conc. 0.10% detergent
[12] = final conc. 0.10% detergent, read-out: Retained Firefly Luciferase Luminescence (%)
[13] = final conc. 0.10% detergent, read-out: Retained Renilla Luciferase Luminescence (%)

T1 sequence (P08659 whole entry): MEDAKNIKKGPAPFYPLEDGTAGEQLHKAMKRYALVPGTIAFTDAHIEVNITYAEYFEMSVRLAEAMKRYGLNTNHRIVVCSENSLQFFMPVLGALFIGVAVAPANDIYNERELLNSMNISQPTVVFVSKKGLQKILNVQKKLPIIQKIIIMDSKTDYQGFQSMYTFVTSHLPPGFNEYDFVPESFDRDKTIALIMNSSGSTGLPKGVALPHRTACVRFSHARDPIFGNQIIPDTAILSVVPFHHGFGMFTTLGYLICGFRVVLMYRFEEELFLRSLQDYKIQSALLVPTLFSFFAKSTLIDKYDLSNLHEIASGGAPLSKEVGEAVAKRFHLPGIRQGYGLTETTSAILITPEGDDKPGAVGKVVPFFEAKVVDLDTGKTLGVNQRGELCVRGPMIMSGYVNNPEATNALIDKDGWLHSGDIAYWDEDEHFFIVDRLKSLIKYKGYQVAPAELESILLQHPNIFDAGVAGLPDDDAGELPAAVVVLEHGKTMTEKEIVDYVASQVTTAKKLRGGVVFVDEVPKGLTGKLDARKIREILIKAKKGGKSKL

With C[N+](C)(C)CCCCCBr.[Br-] [(5-Bromopentyl)trimethylammonium bromide] the remaining activity at 0.5 % (firefly luciferase [1]; [7]) was 79.1%, the remaining activity at 0.5 % (Renilla luciferase [2]; [8]) was 75% and the “Selectivity Value” (Renilla luciferase [2]; [9]) was 1.1.

With C[N+](C)(C)CCCBr.[Br-] [(3-Bromopropyl)trimethylammonium bromide] the remaining activity at 0.5 % (firefly luciferase [1]; [7]) was 72.2%, the remaining activity at 0.5 % (Renilla luciferase [2]; [8]) was 71.6% and the “Selectivity Value” (Renilla luciferase [2]; [9]) was 1.0.

With C[C@H](CCC(=O)NCCC[N+](C)(C)CC(O)CS(=O)(=O)[O-])[C@H]1CC[C@H]2[C@@H]3[C@H](O)C[C@@H]4C[C@H](O)CC[C@]4(C)[C@H]3C[C@H](O)[C@]12C (stereo partly drawn) [CHAPSO] the “Retained Firefly Luciferase Luminescence (%)” value (firefly luciferase [1]; [7]) was 70.07%, the “Retained Renilla Luciferase Luminescence (%)” value (Renilla luciferase [2]; [8]) was 52.15% and the “Selectivity Value” (Renilla luciferase [2]; [9]) was 1.3.

With Sodium deoxycholate the “Retained Firefly Luciferase Luminescence (%)” value (firefly luciferase [1]; [7]) was 39.75%, the “Retained Renilla Luciferase Luminescence (%)” value (Renilla luciferase [2]; [8]) was 60.64% and the “Selectivity Value” (Renilla luciferase [2]; [9]) was 0.7.

For Decamthonium bromide, the “Retained Firefly Luciferase Luminescence (%)” value (firefly luciferase [1]; [7]) was 85.42%, the “Retained Renilla Luciferase Luminescence (%)” value (Renilla luciferase [2]; [8]) was 76.68% and the “Selectivity Value” (Renilla luciferase [2]; [9]) was 1.1.

In the case of C[N+](C)(C)CCBr.[Br-] [(2-Bromoethyl)trimethylammonium bromide], the remaining activity at 0.5 % (firefly luciferase [1]) was 91.4%, the remaining activity at 0.5 % (Renilla luciferase [2]) was 78.4% and the “Selectivity Value” (Renilla luciferase [2]; [9]) was 1.2.

With C[C@H](CCC(=O)NCCC[N+](C)(C)CCCS(=O)(=O)[O-])[C@H]1CC[C@H]2[C@@H]3[C@H](O)C[C@@H]4C[C@H](O)CC[C@]4(C)[C@H]3C[C@H](O)[C@]12C [CHAPS] the “Retained Firefly Luciferase Luminescence (%)” value (firefly luciferase [1]; [7]) was 73.84%, the “Retained Renilla Luciferase Luminescence (%)” value (Renilla luciferase [2]; [8]) was 47.29% and the “Selectivity Value” (Renilla luciferase [2]; [9]) was 1.6.

Tergitol NP-9 was tested, and the “Retained Firefly Luciferase Luminescence (%)” value (firefly luciferase [1]; [7]) was 79.16%, the “Retained Renilla Luciferase Luminescence (%)” value (Renilla luciferase [2]) was 27.14% and the “Selectivity Value” (Renilla luciferase [2]) was 2.9.

[Br-].c1ccc([P+](c2ccccc2)(c2ccccc2)c2ccccc2)cc1 [Tetraphenylphosphonium bromide] was tested, and the remaining activity at 0.5 % (firefly luciferase [1]; [7]) was 90.9%, the remaining activity at 0.5 % (Renilla luciferase [2]; [8]) was 24.5% and the “Selectivity Value” (Renilla luciferase [2]; [9]) was 3.7.

In the case of CC[N+](CC)(CC)Cc1ccccc1.[Br-] [Benzyltriethylammonium bromide], the remaining activity at 0.1 % (firefly luciferase [3]; [10]) was 100%, the remaining activity at 0.03 % (firefly luciferase [4]) was 97% and the “Selectivity Value” (Renilla luciferase [5]) was 1.0. For the same compound, the remaining activity at 0.03 % (Renilla luciferase [5]) was 95%, the “Selectivity Value” (Renilla luciferase [6]; final conc. 0.10% detergent) was 0.9 and the remaining activity at 0.1 % (Renilla luciferase [6]; [11]) was 87%.

For Benzalkonium, the “Retained Firefly Luciferase Luminescence (%)” value (firefly luciferase [1]; [7]) was 0.20%, the “Retained Renilla Luciferase Luminescence (%)” value (Renilla luciferase [2]; [8]) was 0.04% and the “Selectivity Value” (Renilla luciferase [2]; [9]) was 5.0.

With C[P+](CCCC(=O)O)(c1ccccc1)c1ccccc1.[Cl-] [(3-Carboxyl-propyl)-methyl-diphenyl-phosphonium chloride] the remaining activity at 0.1 % (firefly luciferase [3]; [10]) was 102%, the remaining activity at 0.03 % (firefly luciferase [4]) was 98% and the “Selectivity Value” (Renilla luciferase [5]) was 1.0. For the same compound, the remaining activity at 0.03 % (Renilla luciferase [5]) was 99%, the “Selectivity Value” (Renilla luciferase [6]; final conc. 0.10% detergent) was 0.9 and the remaining activity at 0.1 % (Renilla luciferase [6]; [11]) was 89%.

In the case of CCCCCCCCCC[N+](C)(C)CCCS(=O)(=O)[O-] [Zwittergent 3-10], the “Retained Firefly Luciferase Luminescence (%)” value (firefly luciferase [1]; [7]) was 73.92%, the “Retained Renilla Luciferase Luminescence (%)” value (Renilla luciferase [2]; [8]) was 33.45% and the “Selectivity Value” (Renilla luciferase [2]; [9]) was 2.2.

In the case of C[N+](C)(Cc1ccccc1)c1ccccc1.[Br-] [Benzyldimethylphenylammonium bromide], the “Retained Firefly Luciferase Luminescence (%)” value (firefly luciferase [3]; final conc. 0.10% detergent) was 107%, the “Retained Firefly Luciferase Luminescence (%)” value (firefly luciferase [4]) was 101% and the “Selectivity Value” (Renilla luciferase [5]) was 1.3. The “Retained Renilla Luciferase Luminescence (%)” value (Renilla luciferase [5]) was 78%, the “Selectivity Value” (Renilla luciferase [6]; final conc. 0.10% detergent) was 1.3 and the “Retained Renilla Luciferase Luminescence (%)” value (Renilla luciferase [6]; final conc. 0.10% detergent) was 81%.

For CCCCCCCCCC[N+](C)(C)Cc1ccccc1.[Cl-] [Benzyldimethyldecylammonium chloride], the remaining activity at 0.1 % (firefly luciferase [3]; [12]) was 112%, the remaining activity at 0.03 % (firefly luciferase [4]) was 114% and the “Selectivity Value” (Renilla luciferase [5]) was 6.3. For the same compound, the remaining activity at 0.03 % (Renilla luciferase [5]) was 18%, the “Selectivity Value” (Renilla luciferase [6]; final conc. 0.10% detergent) was 112 and the remaining activity at 0.1 % (Renilla luciferase [6]; [13]) was 1%.

In the case of CC[N+](CC)(CCC(=O)Nc1c(C)cccc1C)Cc1ccccc1.O=C([O-])c1ccccc1 [Benzyldiethyl(2,6-xylycarbamoylethyl)-ammonium benzoate], the “Retained Firefly Luciferase Luminescence (%)” value (firefly luciferase [3]; final conc. 0.10% detergent) was 102%, the “Retained Firefly Luciferase Luminescence (%)” value (firefly luciferase [4]) was 110% and the “Selectivity Value” (Renilla luciferase [5]) was 1.5. The “Retained Renilla Luciferase Luminescence (%)” value (Renilla luciferase [5]) was 74%, the “Selectivity Value” (Renilla luciferase [6]; final conc. 0.10% detergent) was 2.2 and the “Retained Renilla Luciferase Luminescence (%)” value (Renilla luciferase [6]; final conc. 0.10% detergent) was 46%.

For C[N+](C)(C)CCCCCC[N+](C)(C)C [Hexamethonium bromide], the remaining activity at 0.5 % (firefly luciferase [1]; [7]) was 96%, the remaining activity at 0.5 % (Renilla luciferase [2]; [8]) was 91% and the “Selectivity Value” (Renilla luciferase [2]; [9]) was 1.1.

In the case of “(−)-N-dodecyl-N-methyl ephedrium bromide”, the “Retained Firefly Luciferase Luminescence (%)” value (firefly luciferase [3]; final conc. 0.10% detergent) was 102%, the “Retained Firefly Luciferase Luminescence (%)” value (firefly luciferase [4]) was 106% and the “Selectivity Value” (Renilla luciferase [5]) was 7.1. The “Retained Renilla Luciferase Luminescence (%)” value (Renilla luciferase [5]) was 15%, the “Selectivity Value” (Renilla luciferase [6]; final conc. 0.10% detergent) was 102.1 and the “Retained Renilla Luciferase Luminescence (%)” value (Renilla luciferase [6]; final conc. 0.10% detergent) was 1%.

For CCCCCCCC[N+](CCCCCCCC)(CCCCCCCC)CCCCCCCC.[Br-] [Tetraoctylammonium bromide], the remaining activity at 0.5 % (firefly luciferase [1]; [7]) was 43.7%, the remaining activity at 0.5 % (Renilla luciferase [2]; [8]) was 43.1% and the “Selectivity Value” (Renilla luciferase [2]; [9]) was 1.0.

With CCCCCCCCCCC(C(=O)c1ccc(OC)cc1)[N+](C)(C)C.[Br-] (stereo not drawn) [(1-(4-methoxybenzoyl)-undecyl)-trimethylammonium bromide] the remaining activity at 0.1 % (firefly luciferase [3]; [12]) was 104%, the remaining activity at 0.03 % (firefly luciferase [4]) was 106% and the “Selectivity Value” (Renilla luciferase [5]) was 5.3. The remaining activity at 0.03 % (Renilla luciferase [5]) was 20%, the “Selectivity Value” (Renilla luciferase [6]; final conc. 0.10% detergent) was 52 and the remaining activity at 0.1 % (Renilla luciferase [6]; [13]) was 2%.

For C[N+]1(C)CCCc2cccc(O)c21.[I-] [1,1-Dimethyl-8-hydroxy-1,2,3,4-tetrahydroquinolium iodide], the “Retained Firefly Luciferase Luminescence (%)” value (firefly luciferase [3]; final conc. 0.10% detergent) was 68%, the “Retained Firefly Luciferase Luminescence (%)” value (firefly luciferase [4]) was 81% and the “Selectivity Value” (Renilla luciferase [5]) was 0.9. For the same compound, the “Retained Renilla Luciferase Luminescence (%)” value (Renilla luciferase [5]) was 88%, the “Selectivity Value” (Renilla luciferase [6]; final conc. 0.10% detergent) was 0.8 and the “Retained Renilla Luciferase Luminescence (%)” value (Renilla luciferase [6]; final conc. 0.10% detergent) was 82%.

For s-Acetylthiochloline bromide, the “Retained Firefly Luciferase Luminescence (%)” value (firefly luciferase [1]; [7]) was 70.97%, the “Retained Renilla Luciferase Luminescence (%)” value (Renilla luciferase [2]; [8]) was 90.65% and the “Selectivity Value” (Renilla luciferase [2]; [9]) was 0.8.

For C[C@H](CCC(=O)NCCS(=O)(=O)O)[C@H]1CC[C@H]2[C@@H]3CC[C@@H]4C[C@H](O)CC[C@]4(C)[C@H]3CC[C@]12C [Taurolithocholic acid], the remaining activity at 0.5 % (firefly luciferase [1]; [7]) was 81.3%, the remaining activity at 0.5 % (Renilla luciferase [2]; [8]) was 75% and the “Selectivity Value” (Renilla luciferase [2]; [9]) was 1.1.
